Patent US11208400B2, “Substituted 6-(1H-pyrazol-1-yl)pyrimidin-4-amine derivatives and uses thereof” (Bayer Aktiengesellschaft, priority 2016, dated 2021)

What follows are molecules tested against T1, human Npt2a (Homo sapiens, UniProt Q06495) (assay: Npt2a activity cell based assay, membrane potential dye, CHO T-REx hNpt2a cells). Settings: doxycycline-induced, depolarization by sodium phosphate influx, average or median values if tested more than once.
T1 construct: expressed in transfected cells
T1 sequence (Q06495 1-639): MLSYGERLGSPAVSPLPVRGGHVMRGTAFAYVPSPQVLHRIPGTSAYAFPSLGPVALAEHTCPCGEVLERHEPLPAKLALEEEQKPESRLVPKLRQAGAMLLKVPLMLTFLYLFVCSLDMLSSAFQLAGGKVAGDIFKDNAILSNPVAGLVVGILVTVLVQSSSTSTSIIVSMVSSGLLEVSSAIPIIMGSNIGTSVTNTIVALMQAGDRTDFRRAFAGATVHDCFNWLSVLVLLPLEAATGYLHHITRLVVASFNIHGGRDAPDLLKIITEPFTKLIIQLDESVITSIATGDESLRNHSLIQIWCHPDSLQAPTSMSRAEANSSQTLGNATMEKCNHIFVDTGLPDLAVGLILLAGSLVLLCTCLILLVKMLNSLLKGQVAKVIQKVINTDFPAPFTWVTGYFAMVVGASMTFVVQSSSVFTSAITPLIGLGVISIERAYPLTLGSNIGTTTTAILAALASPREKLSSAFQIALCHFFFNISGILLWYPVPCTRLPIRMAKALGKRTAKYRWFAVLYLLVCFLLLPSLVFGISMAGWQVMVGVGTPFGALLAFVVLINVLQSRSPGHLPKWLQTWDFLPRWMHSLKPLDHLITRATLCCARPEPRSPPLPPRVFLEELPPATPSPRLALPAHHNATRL
Summary of the method: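 Cells were doxycycline-induced CHO T-REx hNpt2a, dye-loaded and pretreated 5 min at RT with 1 nM–50 μM compound in Na-free pH 7.4 buffer. IC50 was fit to the post/pre-trigger fluorescence ratio.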

Structure (SMILES) | IC50
COc1c(-c2ccc(F)cc2)nn(CC2CC2)c1Nc1cc(-n2nc(C)c(C(C)=O)c2C)ncn1 [Example 317, 1-[1-(6-{[1-(cyclopropylmethyl)-3-(4-fluorophenyl)-4-methoxy-1H-pyrazol-5-yl]amino}pyrimidin-4-yl)-3,5-dimethyl-1H-pyrazol-4-yl]ethanone] | 450 nM
COc1c(-c2ccc(C#N)cc2)nn(CC2CC2)c1Nc1cc(-n2nc(C)c(C(C)=O)c2C)ncn1 [Example 318, 4-[5-{[6-(4-acetyl-3,5-dimethyl-1H-pyrazol-1-yl)pyrimidin-4-yl]amino}-1-(cyclopropylmethyl)-4-methoxy-1H-pyrazol-3-yl]benzonitrile] | 790 nM
CCOC(=O)c1c(C)nn(-c2cc(Nc3c(OC)c(-c4ccc(F)cc4)nn3CC3CC3)ncn2)c1C [Example 319, ethyl 1-(6-{[1-(cyclopropylmethyl)-3-(4-fluorophenyl)-4-methoxy-1H-pyrazol-5-yl]amino}pyrimidin-4-yl)-3,5-dimethyl-1H-pyrazole-4-carboxylate] | 82 nM
CCOC(=O)c1c(C)nn(-c2cc(Nc3c(OC)c(-c4ccc(C#N)cc4)nn3CC3CC3)ncn2)c1C [Example 320, ethyl 1-(6-{[3-(4-cyanophenyl)-1-(cyclopropylmethyl)-4-methoxy-1H-pyrazol-5-yl]amino}pyrimidin-4-yl)-3,5-dimethyl-1H-pyrazole-4-carboxylate] | 71 nM
CC(=O)c1c(C)nn(-c2cc(Nc3c(C)c(-c4ccc(C#N)cc4)nn3CC3CC3)ncn2)c1C [Example 321, 4-[5-{[6-(4-acetyl-3,5-dimethyl-1H-pyrazol-1-yl)pyrimidin-4-yl]amino}-1-(cyclopropylmethyl)-4-methyl-1H-pyrazol-3-yl]benzonitrile] | 16 nM
Cc1cc(C)n(-c2cc(Nc3c(C)c(-c4ccc(C5CN(C(=O)OC(C)(C)C)C5)cc4)nn3C)ncn2)n1 [Example 323, tert-butyl 3-[4-(5-{[6-(3,5-dimethyl-1H-pyrazol-1-yl)pyrimidin-4-yl]amino}-1,4-dimethyl-1H-pyrazol-3-yl)phenyl]azetidine-1-carboxylate] | 660 nM
Cc1cc(C)n(-c2cc(Nc3c(C)c(-c4ccc(C5CC5)cc4)nn3C)ncn2)n1 [Example 324, N-[3-(4-cyclopropylphenyl)-1,4-dimethyl-1H-pyrazol-5-yl]-6-(3,5-dimethyl-1H-pyrazol-1-yl)pyrimidin-4-amine] | 270 nM
CC(=O)c1c(C)nn(-c2cc(Nc3c(C)c(-c4ccc(C#N)cc4)nn3C)ncn2)c1C [Example 337, 4-(5-{[6-(4-acetyl-3,5-dimethyl-1H-pyrazol-1-yl)pyrimidin-4-yl]amino}-1,4-dimethyl-1H-pyrazol-3-yl)benzonitrile] | 66 nM
Cc1cc(C(F)F)n(-c2cc(Nc3nn(C)c(-c4ccc(F)cc4)c3Cl)ncn2)n1 [Example 346, N-[4-chloro-5-(4-fluorophenyl)-1-methyl-1H-pyrazol-3-yl]-6-[5-(difluoromethyl)-3-methyl-1H-pyrazol-1-yl]pyrimidin-4-amine] | 4 nM
Cc1nn(-c2cc(Nc3c(C)c(-c4ccc(Cl)cc4)nn3CC3CC3)ncn2)c(C)c1C(C)(C)O [Example 347, 2-[1-(6-{[3-(4-chlorophenyl)-1-(cyclopropylmethyl)-4-methyl-1H-pyrazol-5-yl]amino}pyrimidin-4-yl)-3,5-dimethyl-1H-pyrazol-4-yl]propan-2-ol] | 23 nM
Cc1nn(-c2cc(Nc3nn(C)c(-c4ccc(F)cc4)c3C)ncn2)c(C)c1C#N [Example 348, 1-(6-{[5-(4-fluorophenyl)-1,4-dimethyl-1H-pyrazol-3-yl]amino}pyrimidin-4-yl)-3,5-dimethyl-1H-pyrazole-4-carbonitrile] | 15 nM
CCc1c(-c2ccc(F)cc2)nn(CC2CC2)c1Nc1cc(-n2nc(C)c(C#N)c2C)ncn1 [Example 349, 1-(6-{[1-(cyclopropylmethyl)-4-ethyl-3-(4-fluorophenyl)-1H-pyrazol-5-yl]amino}pyrimidin-4-yl)-3,5-dimethyl-1H-pyrazole-4-carbonitrile] | 49 nM
Cc1cc(C)n(-c2cc(Nc3c(C)c(-c4ccncc4)nn3CC3CC3)ncn2)n1 [Example 350, N-[1-(cyclopropylmethyl)-4-methyl-3-(pyridin-4-yl)-1H-pyrazol-5-yl]-6-(3,5-dimethyl-1H-pyrazol-1-yl)pyrimidin-4-amine] | 1300 nM
Cc1nn(-c2cc(Nc3c(C)c(-c4ccncc4)nn3CC3CC3)ncn2)c(C)c1Cl [Example 351, 6-(4-chloro-3,5-dimethyl-1H-pyrazol-1-yl)-N-[1-(cyclopropylmethyl)-4-methyl-3-(pyridin-4-yl)-1H-pyrazol-5-yl]pyrimidin-4-amine] | 65 nM
Cc1nn(-c2cc(Nc3c(C)c(-c4ccc(C#N)cc4)nn3CC3CC3)ncn2)c(C)c1C#N [Example 352, 1-(6-{[3-(4-cyanophenyl)-1-(cyclopropylmethyl)-4-methyl-1H-pyrazol-5-yl]amino}pyrimidin-4-yl)-3,5-dimethyl-1H-pyrazole-4-carbonitrile] | 25 nM
CCOC(=O)c1c(C)nn(-c2cc(Nc3nn(C)c(-c4ccc(Cl)cc4)c3C)ncn2)c1C [Example 353, ethyl 1-(6-{[5-(4-chlorophenyl)-1,4-dimethyl-1H-pyrazol-3-yl]amino}pyrimidin-4-yl)-3,5-dimethyl-1H-pyrazole-4-carboxylate] | 5 nM
Cc1cc(C)n(-c2cc(Nc3c(C)c(-c4ccc(Cl)cc4)nn3C)ncn2)n1 [Example 354, N-[3-(4-chlorophenyl)-1,4-dimethyl-1H-pyrazol-5-yl]-6-(3,5-dimethyl-1H-pyrazol-1-yl)pyrimidin-4-amine] | 135 nM
Cc1cc(C)n(-c2cc(Nc3nn(C)c(-c4ccc(Cl)cc4)c3C)ncn2)n1 [Example 355, N-[5-(4-chlorophenyl)-1,4-dimethyl-1H-pyrazol-3-yl]-6-(3,5-dimethyl-1H-pyrazol-1-yl)pyrimidin-4-amine] | 20 nM
CCOC(=O)c1c(C)nn(-c2cc(Nc3nn(C)c(-c4ccc(F)cc4)c3Cl)ncn2)c1C [Example 356, ethyl 1-(6-{[4-chloro-5-(4-fluorophenyl)-1-methyl-1H-pyrazol-3-yl]amino}pyrimidin-4-yl)-3,5-dimethyl-1H-pyrazole-4-carboxylate] | 2 nM
Cc1nn(-c2cc(Nc3nn(C)c(-c4ccc(F)cc4)c3Cl)ncn2)c(C)c1C1(O)CC1 [Example 357, 1-[1-(6-{[4-chloro-5-(4-fluorophenyl)-1-methyl-1H-pyrazol-3-yl]amino}pyrimidin-4-yl)-3,5-dimethyl-1H-pyrazol-4-yl]cyclopropanol] | 32 nM
CCOC(=O)c1c(C)nn(-c2cc(Nc3c(C)c(-c4ccc(OC(F)(F)F)cc4)nn3C)ncn2)c1C [Example 361, ethyl 1-[6-({1,4-dimethyl-3-[4-(trifluoromethoxy)phenyl]-1H-pyrazol-5-yl}amino)pyrimidin-4-yl]-3,5-dimethyl-1H-pyrazole-4-carboxylate] | 31 nM
CCOC(=O)c1c(C)nn(-c2cc(Nc3c(C)c(-c4ccc(C(F)(F)F)cc4)nn3C)ncn2)c1C [Example 362, ethyl 1-[6-({1,4-dimethyl-3-[4-(trifluoromethyl)phenyl]-1H-pyrazol-5-yl}amino)pyrimidin-4-yl]-3,5-dimethyl-1H-pyrazole-4-carboxylate] | 220 nM
CCOC(=O)c1c(C)nn(-c2cc(Nc3c(C)c(-c4ccc(F)cc4F)nn3C)ncn2)c1C [Example 363, ethyl 1-(6-{[3-(2,4-difluorophenyl)-1,4-dimethyl-1H-pyrazol-5-yl]amino}pyrimidin-4-yl)-3,5-dimethyl-1H-pyrazole-4-carboxylate] | 150 nM
CCOC(=O)c1c(C)nn(-c2cc(Nc3c(C)c(-c4ccc(F)cc4F)nn3CC3CC3)ncn2)c1C [Example 364, ethyl 1-(6-{[1-(cyclopropylmethyl)-3-(2,4-difluorophenyl)-4-methyl-1H-pyrazol-5-yl]amino}pyrimidin-4-yl)-3,5-dimethyl-1H-pyrazole-4-carboxylate] | 5 nM
Cc1nn(-c2cc(Nc3c(C)c(-c4ccc(C#N)cc4)nn3CC3CC3)ncn2)c2c1C(=O)CC2 [Example 365, 4-[1-(cyclopropylmethyl)-4-methyl-5-{[6-(3-methyl-4-oxo-5,6-dihydrocyclopenta[c]pyrazol-1(4H)-yl)pyrimidin-4-yl]amino}-1H-pyrazol-3-yl]benzonitrile] | 61 nM
Cc1nn(-c2ccc(C#N)cc2)c(C)c1Nc1cc(-n2nc(C)c(C(C)(C)O)c2C)ncn1 [Example 366, 4-[4-({6-[4-(2-hydroxypropan-2-yl)-3,5-dimethyl-1H-pyrazol-1-yl]pyrimidin-4-yl}amino)-3,5-dimethyl-1H-pyrazol-1-yl]benzonitrile] | 150 nM
CCOC(=O)c1c(C)nn(-c2cc(Nc3c(C)c(-c4ccc(Cl)cc4)nn3C)ncn2)c1C [Example 367, ethyl 1-(6-{[3-(4-chlorophenyl)-1,4-dimethyl-1H-pyrazol-5-yl]amino}pyrimidin-4-yl)-3,5-dimethyl-1H-pyrazole-4-carboxylate] | 40 nM
